Test results from article PMC8229181, “Chemical Characterization and Anti-Inflammatory Activity of Phytoconstituents from Swertia alata” (Plants, 2021).

Assays:
[1] = system: carrageenan induced rat paw edema; experiment: Carrageenan-induced rat paw edema method; assay type: in vivo, Wistar albino rat; details: for Increase in Paw Edema (Mean ± SEM): 3 h after inducing edema, rat
Source text: Carageenan was used to induced paw Edema in Wistar albino rat. Carrageenan induced paw edema is a standard assay for acute inflammation that is effectively employed to evaluate the phytoisolate against anti-inflammatory activity. Edema is produced by a sequential release of inflammatory mediators such as histamine, serotonin, kinnins, prostaglandins and bradykinins, which leads to fluid accumulation. Edema is characteristic of an acute inflammatory response. The release of histamine or serotonin occurs in the first phase (up to 1 h) and the second phase (over 1 h) is associated with the production of bradykinins. It is well known that the third phase of the edema induced by carrageenan, in which the edema reaches its highest volume, is characterized by the presence of prostaglandins and other compounds of slow reaction. Previous studies have shown that phytocompounds of S. alata play an important pharmacological role in inflammation. […] Moreover, several studies support that S. alata species have shown antioxidative effects. Inhibition of COX by S. alata leads to a decrease in all prostaglandin and thromboxane synthesis, which accounts for the beneficial anti-inflammatory and prevents ulcerogenic effects. […] Based on the antioxidant effect, SA4 may involve the inhibition of cyclooxygenase/prostaglandin-endoperoxide synthase (PGHS-1 and PGHS-2), and regulatory enzymes, involved in the biosynthesis of prostaglandin (PG) which is strongly implicated in inflammation.
The anti-inflammatory activity of isolated compound was evaluated on Wistar albino rat using carrageenan induced rat paw edema method as per the procedure described in earlier research. The animals were divided into groups, consisting of five rats in each group. The prepared compounds were administered orally at doses of 2, 4, 8 mg/kg body weight (oral gavage) and the volume of paw was determined plethysmographically (Ugo-Basile, Gemonio (VA), Italy). […] Carrageenan (0.1 mL, 1.0% w/v in 0.9% of normal saline) was injected after half an hour into the sub-plantar tissue of the rat’s hind paw. The paw volume was measured at hourly intervals for 3 h (0, 1, 2, and 3 h) and the percent inhibition of edema was calculated using the following formula:% inhibition = (1 − Vs/Vc × 100),(1) where, Vs = paw volume in sample treated group, Vc = paw volume in control group.

ovine COX-1 = biological target: T1, ovine COX-1 (Ovis aries, UniProt P05979); experiment: In vitro COX-1 inhibitory assay (enzyme immunoassay kit); assay type: biochemical; details: ovine COX-1, enzyme immunoassay kit
T1 construct: purchased Cayman Chemicals Inc., Ann Arbor, MI, USA 560131
T1 sequence (P05979 25-600): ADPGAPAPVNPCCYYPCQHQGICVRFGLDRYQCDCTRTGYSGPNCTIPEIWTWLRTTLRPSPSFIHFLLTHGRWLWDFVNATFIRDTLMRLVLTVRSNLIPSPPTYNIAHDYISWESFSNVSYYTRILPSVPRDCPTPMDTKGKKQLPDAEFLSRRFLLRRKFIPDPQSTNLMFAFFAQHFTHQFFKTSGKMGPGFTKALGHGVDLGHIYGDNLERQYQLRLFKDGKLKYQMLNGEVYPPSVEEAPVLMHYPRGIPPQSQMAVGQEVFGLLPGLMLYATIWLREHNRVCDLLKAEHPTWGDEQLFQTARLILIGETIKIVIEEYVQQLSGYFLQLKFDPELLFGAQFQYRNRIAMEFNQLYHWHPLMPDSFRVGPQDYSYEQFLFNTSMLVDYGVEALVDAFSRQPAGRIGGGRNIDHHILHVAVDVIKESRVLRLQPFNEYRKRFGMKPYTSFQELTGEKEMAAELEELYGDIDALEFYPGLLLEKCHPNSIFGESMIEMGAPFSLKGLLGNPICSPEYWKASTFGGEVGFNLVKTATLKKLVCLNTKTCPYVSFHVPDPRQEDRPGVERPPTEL
Description: (§1) The enzymatic assay was performed as per the manufacturer’s assay instructions and standard literature [48]. COX-1 and COX-2 enzymatic activity provides a simple, sensitive, and high-throughput adaptable method to detect the peroxidase activity of COX in biological samples or purified/crude enzyme preparations. The kit includes COX-1 and COX-2 specific inhibitors to differentiate the activity of COX-1 and COX-2 as well as other peroxidases, which may be present in the sample [49].

human recombinant COX-2 = human recombinant COX-2 (Homo sapiens, UniProt P35354); experiment: In vitro COX-2 inhibitory assay (enzyme immunoassay kit); assay type: biochemical; details: human recombinant COX-2, enzyme immunoassay kit
Sequence of human recombinant COX-2 (P35354 18-604): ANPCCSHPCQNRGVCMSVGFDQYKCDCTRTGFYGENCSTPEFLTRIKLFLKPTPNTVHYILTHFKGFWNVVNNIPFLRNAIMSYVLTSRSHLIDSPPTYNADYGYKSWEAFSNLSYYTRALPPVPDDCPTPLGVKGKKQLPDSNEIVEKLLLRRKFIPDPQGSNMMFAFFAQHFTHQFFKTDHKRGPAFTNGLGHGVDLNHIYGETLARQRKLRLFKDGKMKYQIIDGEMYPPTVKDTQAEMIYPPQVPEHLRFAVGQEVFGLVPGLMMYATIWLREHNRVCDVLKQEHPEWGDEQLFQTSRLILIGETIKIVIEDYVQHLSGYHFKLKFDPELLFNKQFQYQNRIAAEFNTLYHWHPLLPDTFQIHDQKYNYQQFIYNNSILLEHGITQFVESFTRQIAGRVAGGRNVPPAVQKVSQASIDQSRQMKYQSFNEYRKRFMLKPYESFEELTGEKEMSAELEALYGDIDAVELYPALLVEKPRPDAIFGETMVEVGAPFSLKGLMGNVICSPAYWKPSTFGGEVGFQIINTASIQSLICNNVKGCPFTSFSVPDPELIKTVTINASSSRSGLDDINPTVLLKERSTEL
Description: as §1

| Compound | Increase in Paw Edema (Mean ± SEM) ([1]; reference drug, oral (8 mg/kg; 21 mg/kg elsewhere in the source)) [mL] | Increase in Paw Edema (Mean ± SEM) ([1]; 2 mg/kg oral) [mL] | Increase in Paw Edema (Mean ± SEM) ([1]; 4 mg/kg oral) [mL] | Increase in Paw Edema (Mean ± SEM) ([1]; 8 mg/kg oral) [mL] | IC50 (ovine COX-1) [µM] | IC50 (human recombinant COX-2) [µM] | development of edema at the third hour after treatment ([1]; 8 mg/kg, third hour, p < 0.05) |
| --- | --- | --- | --- | --- | --- | --- | --- |
| COc1ccc2c(c1)c(CC(=O)O)c(C)n2C(=O)c1ccc(Cl)cc1 [Indomethacin, reference compound] | 0.15 ± 0.02 |  |  |  |  |  |  |
| CC1(C)CC[C@]2(C(=O)O)CC[C@]3(C)C(=CC[C@@H]4[C@@]5(C)CC[C@H](O)C(C)(C)[C@@H]5CC[C@]43C)[C@@H]2C1 [SA-1, oleanolic acid] |  | 0.29 ± 0.00 | 0.27 ± 0.22 | 0.23 ± 0.01 |  |  |  |
| CC(C)C1CCC2(C(=O)O)CCC3(C)C(=CCC4C5(C)CCC(O)C(C)(C)C5CCC43C)C12 (stereo not shown) [SA-4, 3-hydroxylup-12-(13)-ene-17-carboxylic acid] |  | 0.28 ± 0.00 | 0.26 ± 0.22 | 0.17 ± 0.01 | 104 | 61.7 | significantly inhibited |
